Test results taken from US20130053435A1, “Methods of Treating Alcohol Intoxication, Alcohol Use Disorders and Alcohol Abuse Which Comprises the Administration of Dihydromyricetin” (priority 2011, published 2013).

Assays:
Type in all cases: in vivo, rat
[1] = Metabolic studies in rats; conditions: DHM oral administration, 1 mg/kg
[2] = tested on: voluntary EtOH consumption in rats; test: Intermittent access two-bottle choice voluntary EtOH intake; conditions: for EtOH consumption: E+D/water sub-group switched after 4 weeks
Description: All fluids were presented in 100 ml graduated glass cylinders with stainless-steel drinking spouts inserted 15 min after the lights went off in the reversed light/dark cycle room. Bottles were weighed 30 min and 24 hrs after the fluids were presented. Each rat was weighed daily to monitor health and calculate the grams of ethanol intake per kilogram of body weight.
Sweetener (2 pk/L) was added to every bottle for the first week. Sweetener (1 pk/L) was added to every bottle for the second week. […] Rats had unlimited access to two bottles of water between the EtOH-access periods. The placement of the EtOH bottle was alternated each EtOH drinking session to control for side preferences. Rats were maintained on 20% EtOH intermittent access two-bottle choice paradigm for 7 weeks (21 EtOH-access sessions). […] The rest of the EtOH group continued EtOH-access sessions. EtOH consumption was expressed as grams of EtOH consumed per kilogram of body weight. Rats access to two bottles of water were taken as the control-group. There was no significant difference in body weight between the control and the EtOH-drinking rats at the end of the experiments.

GABAAR α4 subunit = test: Western blot of hippocampal tissue after 48 hr withdrawal
Description: Parallel Western blots from rat hippocampus were examined to determine whether EtOH induced changes in total protein of GABAAR α4 subunits. Hippocampal tissues from rats were lysed in RIPA-buffer containing 1% Triton X-100, 0.1% sodium dodecyl sulfate (SDS), 50 mM Na3PO4, 150 mM NaCl, 2 mM EDTA, 50 mM NaF, 10 mM sodium pyrophosphate, 1 mM sodium orthovanadate, 1 mM phenylmethylsulfonyl fluoride (PMSF) and Complete protease inhibitor cocktail (Roche). The lysate was centrifuged for 15 min (14,000×g, 4° C.) and the supernatant collected for Western blot analysis. Western blots were performed using rabbit anti-GABAAR α4 (aa 379-421) and mouse anti-β-actin (Sigma) followed by HRP-conjugated secondary antibodies. Bands were detected using ECL detection kit (Amersham) and analyzed by densitometric measurements using ImageQuant 5.2 (Molecular Dynamics). Bands were stripped with buffer containing 62.5 mM Tris-HCl, 100 mM β-mercaptoethanol and 2% SDS (pH 6.7) and reprobed several times. Protein concentrations were determined with BCA Protein Assay Kit (Pierce) according to the manufacturer instructions.
The total protein content of GABAAR α4 subunit in hippocampus 48 hr after the above 4 treatments was assayed.

[3] = tested on: PTZ-induced seizures in rats; test: PTZ-induced seizures after EtOH withdrawal; conditions: for PTZ-induced seizure duration: FIG. 12C
Description: Pentylenetetrazol (PTZ)-induced seizures were also measured in rats. […] PTZ dose used in this study (42 mg/kg in saline) was determined as the dose that induced seizures in 75% naïve rats. Briefly, after i.p. injection of PTZ, the time to onset and the duration of tonic-clonic seizures was determined as described previously. The researchers who conducted the animal behavior experiments were blind to treatment groups. Animals were used once only for any determination.
48 hr after injection, rats were sub-divided into 3 groups to measure signs of EtOH withdrawal.
As described herein, hyperexcitability was assayed with PTZ-induced seizures duration (FIG. 12C). PTZ induced 0.9±0.2 min seizures in subjects of the vehicle group and 6.5±1.1 min seizures in subjects of the EtOH group.

With `O=C1c2c(O)cc(O)cc2O[C@H](c2cc(O)c(O)c(O)c2)[C@H]1O` [DHM, (2R,3R)-3,5,7-trihydroxy-2-(3,4,5-trihydroxyphenyl)-2,3-dihydrochromen-4-one] as the compound, how does the “metabolic change (food and water intake, urine volume and stool volume)” value [1] read?
The value was “no metabolic change”.

What about the EtOH-intake ([2]; E+D/water group, DHM 0.05 mg/ml in 20% EtOH from start) of the same compound?
The EtOH-intake was 2.6 ± 0.4 g/kg/day.

And the EtOH consumption ([2]; end of 6th week)?
The EtOH consumption was 1.2 ± 0.2 g/kg/day.

What about the EtOH consumption ([2]; end of the 5th week) of the same compound?
The EtOH consumption was 1.8 ± 1.0 g/kg/day.

And the “total α4 subunit level” value (GABAAR α4 subunit; DHM group)?
The value was 88.3±10.3 % of control.

And the “total α4-protein level” value (GABAAR α4 subunit; EtOH+DHM group)?
The value was 93.0±21.0 % of control.

And the PTZ-seizure duration ([3]; 24 hr after DHM 1 mg/kg i.p. alone)?
The PTZ-seizure duration was “did not induce any significant or observable changes in seizure duration”.

And the PTZ seizure incidence ([3]; 24 hr withdrawal from DHM+EtOH)?
Its PTZ seizure incidence is 85%.

And the PTZ-seizure duration ([3]; 24 hr withdrawal from DHM+EtOH (1 mg/kg+3 g/kg, i.p.), PTZ 42 mg/kg)?
The PTZ-seizure duration was 0.9 ± 0.2 min.

What about the PTZ-induced seizure duration ([3]; 48 hr withdrawal, EtOH+DHM group) of the same compound?
The PTZ-induced seizure duration was 1.7 ± 0.8 min.

And the PTZ-induced seizure duration ([3]; 48 hr, DHM group)?
The PTZ-induced seizure duration was 0.6 ± 0.4 min.

And the “EtOH intoxication/withdrawal-induced increases in PTZ-induced seizure duration and incidence, female rats” value ([3]; female rats, co-administration of DHM+EtOH)?
The value was “inhibits, reduces and/or prevents”.
